Measurements from the supplement of paper PMC10307832.

How the values were obtained:
Assay in all cases: relative viability (nuclei count vs DMSO), 5 days (fraction); higher = more cells survive
LOU-NH91 = tested on: LOU-NH91
Summary of the method: (§1)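 Lung cancer cell lines in 1536-well plates were dosed by pin tool the day after seeding, either with one drug alone or with a fixed anchor-drug dose plus five library-drug doses (not always all listed) in √10 steps. After 5 days, cells were fixed and their nuclei stained in one step (final 0.05% Triton X-100, 1% formaldehyde, 1 ug/ml Hoechst), then counted on 4× images. Relative viability is the nuclei count in treated wells divided by that in vehicle wells. Values are medians of duplicate plates.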

SK-MES-1 = tested on: SK-MES-1
Summary of the method: as §1

NCI-H596 = tested on: NCI-H596
Summary of the method: as §1

NCI-H2170 = tested on: NCI-H2170
Summary of the method: as §1

NCI-H441 = tested on: NCI-H441
Summary of the method: as §1

COR-L 105 = tested on: COR-L 105
Summary of the method: as §1

NCI-H1975 = tested on: NCI-H1975
Summary of the method: as §1

NCI-H1734 = tested on: NCI-H1734
Summary of the method: as §1

SW 900 = tested on: SW 900
Summary of the method: as §1

H3255 = tested on: H3255
Summary of the method: as §1

NCI-H520 = tested on: NCI-H520
Summary of the method: as §1

LK-2 = tested on: LK-2
Summary of the method: as §1

A-427 = tested on: A-427
Summary of the method: as §1

EKVX = tested on: EKVX
Summary of the method: as §1

PC-3 [JPC-3] = tested on: PC-3 [JPC-3]
Summary of the method: as §1

NCI-H1755 = tested on: NCI-H1755
Summary of the method: as §1

NCI-H23 = tested on: NCI-H23
Summary of the method: as §1

ChaGo-K-1 = tested on: ChaGo-K-1
Summary of the method: as §1

EMC-BAC-2 = tested on: EMC-BAC-2
Summary of the method: as §1

HCC-366 = tested on: HCC-366
Summary of the method: as §1

NCI-H1666 = tested on: NCI-H1666
Summary of the method: as §1

NCI-H1563 = tested on: NCI-H1563
Summary of the method: as §1

## COc1cc2nccc(Oc3ccc(NC(=O)Nc4cc(C)on4)c(Cl)c3)c2cc1OC [Tivozanib] + COc1cc2c(Oc3ccc(NC(=O)C4(C(=O)Nc5ccc(F)cc5)CC4)cc3F)ccnc2cc1OCCCN1CCOCC1 [Foretinib] (partner 0.25 µM)
LOU-NH91; first compound 0.005 µM
  relative viability: 0.874
LOU-NH91; first compound 0.01581 µM
  relative viability: 0.974
LOU-NH91; first compound 0.05 µM
  relative viability: 0.993
LOU-NH91; first compound 0.1581 µM
  relative viability: 0.982
LOU-NH91; first compound 0.5 µM
  relative viability: 0.962
SK-MES-1; first compound 0.005 µM
  relative viability: 0.862
SK-MES-1; first compound 0.01581 µM
  relative viability: 0.974
SK-MES-1; first compound 0.05 µM
  relative viability: 1.01
SK-MES-1; first compound 0.1581 µM
  relative viability: 0.981
SK-MES-1; first compound 0.5 µM
  relative viability: 0.924
NCI-H596; first compound 0.005 µM
  relative viability: 0.697
NCI-H596; first compound 0.01581 µM
  relative viability: 0.915
NCI-H596; first compound 0.05 µM
  relative viability: 0.846
NCI-H596; first compound 0.5 µM
  relative viability: 0.879
NCI-H2170; first compound 0.005 µM
  relative viability: 0.943
NCI-H2170; first compound 0.01581 µM
  relative viability: 0.982
NCI-H2170; first compound 0.05 µM
  relative viability: 0.975
NCI-H2170; first compound 0.1581 µM
  relative viability: 1.02
NCI-H2170; first compound 0.5 µM
  relative viability: 1.06
NCI-H441; first compound 0.005 µM
  relative viability: 0.838
NCI-H441; first compound 0.01581 µM
  relative viability: 0.893
NCI-H441; first compound 0.05 µM
  relative viability: 1.12
NCI-H441; first compound 0.1581 µM
  relative viability: 1.11
NCI-H441; first compound 0.5 µM
  relative viability: 0.934
COR-L 105; first compound 0.005 µM
  relative viability: 1.06
COR-L 105; first compound 0.01581 µM
  relative viability: 1.06
COR-L 105; first compound 0.05 µM
  relative viability: 1.13
COR-L 105; first compound 0.1581 µM
  relative viability: 1.23
COR-L 105; first compound 0.5 µM
  relative viability: 1.11
NCI-H1975; first compound 0.005 µM
  relative viability: 0.938
NCI-H1975; first compound 0.01581 µM
  relative viability: 0.967
NCI-H1975; first compound 0.05 µM
  relative viability: 1.04
NCI-H1975; first compound 0.1581 µM
  relative viability: 0.965
NCI-H1975; first compound 0.5 µM
  relative viability: 0.918
NCI-H1734; first compound 0.005 µM
  relative viability: 0.88
NCI-H1734; first compound 0.01581 µM
  relative viability: 0.888
NCI-H1734; first compound 0.05 µM
  relative viability: 0.913
NCI-H1734; first compound 0.1581 µM
  relative viability: 0.823
NCI-H1734; first compound 0.5 µM
  relative viability: 0.863
SW 900; first compound 0.005 µM
  relative viability: 0.806
SW 900; first compound 0.01581 µM
  relative viability: 0.884
SW 900; first compound 0.05 µM
  relative viability: 0.733
SW 900; first compound 0.1581 µM
  relative viability: 0.697
SW 900; first compound 0.5 µM
  relative viability: 0.924
H3255; first compound 0.005 µM
  relative viability: 0.831
H3255; first compound 0.01581 µM
  relative viability: 0.839
H3255; first compound 0.05 µM
  relative viability: 0.907
H3255; first compound 0.1581 µM
  relative viability: 0.66
H3255; first compound 0.5 µM
  relative viability: 0.735
NCI-H520; first compound 0.005 µM
  relative viability: 0.595
NCI-H520; first compound 0.01581 µM
  relative viability: 0.702
NCI-H520; first compound 0.05 µM
  relative viability: 0.74
NCI-H520; first compound 0.1581 µM
  relative viability: 0.644
NCI-H520; first compound 0.5 µM
  relative viability: 0.712
LK-2; first compound 0.005 µM
  relative viability: 1.36
LK-2; first compound 0.01581 µM
  relative viability: 1.09
LK-2; first compound 0.05 µM
  relative viability: 1.18
LK-2; first compound 0.1581 µM
  relative viability: 1.1
LK-2; first compound 0.5 µM
  relative viability: 1.02
A-427; first compound 0.005 µM
  relative viability: 1.03
A-427; first compound 0.01581 µM
  relative viability: 1.11
A-427; first compound 0.05 µM
  relative viability: 1.05
A-427; first compound 0.1581 µM
  relative viability: 1.06
A-427; first compound 0.5 µM
  relative viability: 1.02
EKVX; first compound 0.005 µM
  relative viability: 0.695
EKVX; first compound 0.01581 µM
  relative viability: 0.891
EKVX; first compound 0.05 µM
  relative viability: 0.84
EKVX; first compound 0.1581 µM
  relative viability: 0.456
EKVX; first compound 0.5 µM
  relative viability: 0.786
PC-3 [JPC-3]; first compound 0.005 µM
  relative viability: 1.01
PC-3 [JPC-3]; first compound 0.01581 µM
  relative viability: 1.07
PC-3 [JPC-3]; first compound 0.05 µM
  relative viability: 1.07
PC-3 [JPC-3]; first compound 0.1581 µM
  relative viability: 1.06
PC-3 [JPC-3]; first compound 0.5 µM
  relative viability: 1.01
NCI-H1755; first compound 0.005 µM
  relative viability: 0.916
NCI-H1755; first compound 0.01581 µM
  relative viability: 0.865
NCI-H1755; first compound 0.05 µM
  relative viability: 0.945
NCI-H1755; first compound 0.1581 µM
  relative viability: 0.988
NCI-H1755; first compound 0.5 µM
  relative viability: 0.881
NCI-H23; first compound 0.005 µM
  relative viability: 0.907
NCI-H23; first compound 0.01581 µM
  relative viability: 1.04
NCI-H23; first compound 0.05 µM
  relative viability: 1.04
NCI-H23; first compound 0.1581 µM
  relative viability: 0.942
NCI-H23; first compound 0.5 µM
  relative viability: 1.1
ChaGo-K-1; first compound 0.005 µM
  relative viability: 0.841
ChaGo-K-1; first compound 0.01581 µM
  relative viability: 0.914
ChaGo-K-1; first compound 0.05 µM
  relative viability: 0.869
ChaGo-K-1; first compound 0.1581 µM
  relative viability: 0.889
ChaGo-K-1; first compound 0.5 µM
  relative viability: 0.86
EMC-BAC-2; first compound 0.005 µM
  relative viability: 1.03
EMC-BAC-2; first compound 0.01581 µM
  relative viability: 0.952
EMC-BAC-2; first compound 0.05 µM
  relative viability: 1.03
EMC-BAC-2; first compound 0.1581 µM
  relative viability: 0.952
EMC-BAC-2; first compound 0.5 µM
  relative viability: 1.07
HCC-366; first compound 0.005 µM
  relative viability: 0.934
HCC-366; first compound 0.01581 µM
  relative viability: 0.932
HCC-366; first compound 0.05 µM
  relative viability: 0.9
HCC-366; first compound 0.1581 µM
  relative viability: 0.969
HCC-366; first compound 0.5 µM
  relative viability: 0.861
NCI-H1666; first compound 0.005 µM
  relative viability: 0.973
NCI-H1666; first compound 0.01581 µM
  relative viability: 0.971
NCI-H1666; first compound 0.05 µM
  relative viability: 1.04
NCI-H1666; first compound 0.1581 µM
  relative viability: 0.963
NCI-H1666; first compound 0.5 µM
  relative viability: 0.999
NCI-H1563; first compound 0.005 µM
  relative viability: 0.853
NCI-H1563; first compound 0.01581 µM
  relative viability: 1.01
NCI-H1563; first compound 0.05 µM
  relative viability: 0.888
NCI-H1563; first compound 0.1581 µM
  relative viability: 0.847
NCI-H1563; first compound 0.5 µM
  relative viability: 0.867
